Results on 25 compounds are retold here after patent US20090247559A1 (Exelixis, Inc., priority 2007, published 2009).

Read-outs that look alike come from different tables or passages of the source.

The term IC50 denotes the midpoint of a concentration-inhibition curve.

Test [1] has as its target CDC7 (Homo sapiens, UniProt O00311). The test can be described thus: CDC7 inhibition, biochemical chemiluminescence assay (Kinase Glo, IC50 determination). The method, then:
Characterization of CDC7 Inhibition in a Biochemical Chemiluminesence Assay (IC50 Determination):
The IC50 evaluation of compounds against the CDC7 enzyme was performed in a Chemiluminesence assay utilizing a Greiner 384-well white binding plate format. […] Upon addition of 10 μL of CDC-7 (GB) to the designated well plates and subsequent incubation for ten minutes at ambient temperature, 10 μL of ATP mix in Tris Base was added. Following an incubation period of 90 minutes at ambient temperature (24-27° C.), 20 μL of Kinase Glo (Promega) was added to measure kinase activity by quantitating the amount of ATP remaining in solution. The luminescence was measured following a Luciferase Protocol on either EnVision or Victor plate readers.
For orientation: In Kinase-Glo more light means more ATP remaining.

Test [2] has as its target CK2 (Homo sapiens, UniProt P68400). Description: CK2 inhibition, biochemical chemiluminescence holoenzyme assay (Kinase Glo, IC50 determination). The note with it: Table 1 activity class; symbol given only if active; read-out: CK2 IC50 (Activity C). Summed up:
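Holoenzyme CK2 assay; compounds pre-incubated with substrate and enzyme, then reacted 150 min at 24-27° C. Remaining ATP measured as luminescence with Kinase Glo, and IC50 derived from the signal.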

The target in test [3] is PIM (PIM-1, PIM-2, and/or PIM-3). The test can be described thus: PIM-1, PIM-2 and PIM-3 inhibition, biochemical chemiluminescence assays (Kinase Glo, IC50 determination). The note with it: Table 1 activity class; PIM refers to PIM-1, PIM-2, and/or PIM-3; read-out: PIM IC50 (Activity B).
Where [4] appears, read: Table 1 activity class, symbol given only if active, read-out: CDC7 IC50 (Activity A).
[5] abbreviates: compounds in Table 1, read-out: CDC7 IC50 value.

Chain of CK2 (P68400 whole entry): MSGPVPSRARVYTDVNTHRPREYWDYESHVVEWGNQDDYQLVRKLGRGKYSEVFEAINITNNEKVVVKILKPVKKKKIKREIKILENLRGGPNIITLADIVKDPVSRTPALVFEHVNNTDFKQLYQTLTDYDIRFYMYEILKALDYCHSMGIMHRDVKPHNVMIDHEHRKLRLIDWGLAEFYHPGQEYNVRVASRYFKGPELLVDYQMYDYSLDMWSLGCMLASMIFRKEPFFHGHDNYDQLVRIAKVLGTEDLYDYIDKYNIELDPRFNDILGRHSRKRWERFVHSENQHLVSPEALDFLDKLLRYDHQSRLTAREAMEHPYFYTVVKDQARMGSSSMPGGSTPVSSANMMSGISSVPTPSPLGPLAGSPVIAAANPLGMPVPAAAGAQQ
Chain of CK2 (P67870 whole entry partner): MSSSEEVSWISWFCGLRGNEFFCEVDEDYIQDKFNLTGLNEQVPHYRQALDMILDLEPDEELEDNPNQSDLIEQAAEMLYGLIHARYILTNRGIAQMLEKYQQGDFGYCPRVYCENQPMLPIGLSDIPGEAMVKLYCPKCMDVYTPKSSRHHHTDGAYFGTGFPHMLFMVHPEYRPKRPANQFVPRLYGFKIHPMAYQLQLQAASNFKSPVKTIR
Chain of CDC7 (O00311 whole entry): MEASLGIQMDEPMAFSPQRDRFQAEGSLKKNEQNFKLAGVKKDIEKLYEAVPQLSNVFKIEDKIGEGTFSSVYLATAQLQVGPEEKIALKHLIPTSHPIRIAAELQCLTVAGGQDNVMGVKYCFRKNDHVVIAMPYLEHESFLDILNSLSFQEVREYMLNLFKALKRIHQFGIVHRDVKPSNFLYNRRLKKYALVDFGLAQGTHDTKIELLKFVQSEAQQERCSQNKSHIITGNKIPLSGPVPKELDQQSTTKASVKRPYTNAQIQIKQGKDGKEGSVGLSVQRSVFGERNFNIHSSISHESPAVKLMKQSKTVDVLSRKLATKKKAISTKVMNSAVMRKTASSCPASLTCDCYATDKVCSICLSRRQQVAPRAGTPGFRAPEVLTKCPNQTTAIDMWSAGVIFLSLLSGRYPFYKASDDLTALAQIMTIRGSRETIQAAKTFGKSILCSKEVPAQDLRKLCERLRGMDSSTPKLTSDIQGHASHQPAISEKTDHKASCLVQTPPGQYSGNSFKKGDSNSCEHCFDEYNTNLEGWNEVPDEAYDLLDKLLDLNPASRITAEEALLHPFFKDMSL
Chain of CDC7 (Q9UBU7 whole entry partner): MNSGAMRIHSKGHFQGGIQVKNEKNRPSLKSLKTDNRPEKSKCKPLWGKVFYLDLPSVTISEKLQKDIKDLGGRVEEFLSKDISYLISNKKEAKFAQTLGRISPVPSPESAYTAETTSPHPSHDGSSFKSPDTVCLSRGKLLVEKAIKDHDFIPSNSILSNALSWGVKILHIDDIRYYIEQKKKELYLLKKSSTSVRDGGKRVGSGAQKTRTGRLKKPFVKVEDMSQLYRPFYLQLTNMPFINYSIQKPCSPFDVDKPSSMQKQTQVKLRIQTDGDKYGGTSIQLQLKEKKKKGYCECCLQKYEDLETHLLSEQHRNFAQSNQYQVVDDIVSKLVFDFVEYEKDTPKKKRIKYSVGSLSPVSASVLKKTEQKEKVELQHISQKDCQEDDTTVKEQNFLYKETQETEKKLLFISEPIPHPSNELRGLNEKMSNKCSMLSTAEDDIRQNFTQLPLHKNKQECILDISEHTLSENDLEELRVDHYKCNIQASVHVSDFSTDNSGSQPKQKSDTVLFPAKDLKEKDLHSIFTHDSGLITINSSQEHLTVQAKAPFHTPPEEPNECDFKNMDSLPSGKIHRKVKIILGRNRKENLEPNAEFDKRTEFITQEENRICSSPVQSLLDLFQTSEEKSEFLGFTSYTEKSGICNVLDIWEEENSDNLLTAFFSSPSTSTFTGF

With `COc1c(Br)ccc2oc3c(=O)[nH]c(CN4CC[C@H](O)C4)nc3c12` [Compound 447, 8-bromo-2-{[(3S)-3-hydroxypyrrolidin-1-yl]methyl}-9-(methyloxy)[1]benzofuro[3,2-d]pyrimidin-4(3H)-one], the half-inhibitory concentration (IC50) in test [1] (setting [4]), in test [2] and in test [3] was under 10 µM in each case.
On to `O=c1[nH]c(C2CNC2)nc2c1oc1ccc(Br)cc12` [Compound 198, 2-Azetidin-3-yl-8-bromo[1]benzofuro[3,2-d]pyrimidin-4(3H)-one], for which the IC50 in test [1] (setting [4]) is under 10 µM; in test [1] (setting [5]), under 0.1 µM; in test [2], under 10 µM; in test [3] it was under 10 µM.
Turning to `NCc1ccc(-c2nc3c(oc4ccc(Br)cc43)c(=O)[nH]2)cc1` [Compound 349, 2-[4-(Aminomethyl)phenyl]-8-bromo[1]benzofuro[3,2-d]pyrimidin-4(3H)-one], the IC50 in test [1] (setting [4]), in test [2] and in test [3] was under 10 µM in each case.
Take `CN(C)Cc1nc2c(oc3ccc(Br)cc32)c(=O)[nH]1` [Compound 517, 8-bromo-2-[(dimethylamino)methyl][1]benzofuro[3,2-d]pyrimidin-4(3H)-one]: the 50% inhibitory concentration (IC50) in test [1] (setting [4]) was under 10 µM; in test [1] (setting [5]), under 0.1 µM; in test [2], under 10 µM; in test [3] it was under 10 µM.
For `O=c1[nH]c(CN2CCC(O)CC2)nc2c1oc1ccc(Br)cc12` [Compound 242, 8-bromo-2-[(4-hydroxypiperidin-1-yl)methyl][1]benzofuro[3,2-d]pyrimidin-4(3H)-one], the IC50 is under 10 µM in test [1] (setting [4]), under 0.1 µM in test [1] (setting [5]), under 10 µM in test [2] and under 10 µM in test [3].
`CC[C@H](C)NCc1nc2c(oc3ccc(Br)cc32)c(=O)[nH]1` [Compound 522, 8-bromo-2-({[(1S)-1-methylpropyl]amino}methyl)[1]benzofuro[3,2-d]pyrimidin-4(3H)-one]: the IC50 in test [1] (setting [4]) was under 10 µM; in test [1] (setting [5]), under 0.1 µM; in test [2], under 10 µM; in test [3], under 10 µM.
Regarding `O=C(Cc1c[nH]cn1)Nc1ccc(-c2nc3c(oc4ccc(Br)cc43)c(=O)[nH]2)c(Cl)c1` [Compound 182, N-[4-(8-bromo-4-oxo-3,4-dihydro[1]benzofuro[3,2-d]pyrimidin-2-yl)-3-chlorophenyl]-2-(1H-imidazol-4-yl)acetamide], the IC50 in test [1] (setting [4]), in test [2] and in test [3] was under 10 µM in each case.
Turning to `O=c1[nH]c(CN2CC[C@H](O)C2)nc2c1oc1ccc3cn[nH]c3c12` [Compound 432, 9-{[(3S)-3-hydroxypyrrolidin-1-yl]methyl}-1H-pyrimido[4′,5′:4,5]furo[2,3-g]indazol-7(8H)-one], the concentration for half-maximal inhibition (IC50) is under 10 µM in test [1] (setting [4]), under 0.1 µM in test [1] (setting [5]), under 10 µM in test [2] and under 10 µM in test [3].
Regarding `CCC1(O)CCN(Cc2nc3c(oc4ccc(Br)cc43)c(=O)[nH]2)C1` (stereo not drawn) [Compound 407, 8-bromo-2-[(3-ethyl-3-hydroxypyrrolidin-1-yl)methyl][1]benzofuro[3,2-d]pyrimidin-4(3H)-one], the IC50 was under 10 µM in test [1] (setting [4]), under 0.1 µM in test [1] (setting [5]), under 10 µM in test [2] and under 10 µM in test [3].
Regarding `Cc1ccccc1-c1nc2c(oc3ccc(Br)cc32)c(=O)[nH]1` [Compound 60, 8-bromo-2-(2-methylphenyl)[1]benzofuro[3,2-d]pyrimidin-4(3H)-one], the IC50 in test [1] (setting [4]), in test [2] and in test [3] was under 10 µM each time.
For `O=c1c2oc3ccc(Br)cc3c2nc2n1CN1CCC[C@@H]21` [Compound 453, (13bS)-11-bromo-1,2,3,13b-tetrahydro-7H-[1]benzofuro[3,2-d]pyrrolo[1′,2′:3,4]imidazo[1,5-a]pyrimidin-7-one], the half-inhibitory concentration (IC50) was under 10 µM in test [1] (setting [4]), under 0.1 µM in test [1] (setting [5]), under 10 µM in test [2] and under 10 µM in test [3].
For the compound `CN(C)Cc1cccc(-c2nc3c(oc4ccc(Br)cc43)c(=O)[nH]2)c1` [Compound 353, 8-Bromo-2-{3-[(dimethylamino)methyl]phenyl}[1]benzofuro[3,2-d]pyrimidin-4(3H)-one], the 50% inhibitory concentration (IC50) in test [1] (setting [4]), in test [2] and in test [3] was under 10 µM in each case.
For `O=c1[nH]c([C@@H]2C[C@@H](F)CN2)nc2c1oc1ccc(Br)cc12` [Compound 514, 8-bromo-2-[(2S,4R)-4-fluoropyrrolidin-2-yl][1]benzofuro[3,2-d]pyrimidin-4(3H)-one], the IC50 is under 10 µM in test [1] (setting [4]), under 0.1 µM in test [1] (setting [5]), under 10 µM in test [2] and under 10 µM in test [3].
Regarding `Cn1ccnc1C(=O)Nc1ccc(-c2nc3c(oc4ccc(Br)cc43)c(=O)[nH]2)c(Cl)c1` [Compound 390, N-[4-(8-bromo-4-oxo-3,4-dihydro[1]benzofuro[3,2-d]pyrimidin-2-yl)-3-chlorophenyl]-1-methyl-1H-imidazole-2-carboxamide], the IC50 in test [1] (setting [4]), in test [2] and in test [3] was under 10 µM throughout.
Regarding `O=c1[nH]c(-c2cnccc2Cl)nc2c1oc1ccc(Br)cc12` [Compound 148, 8-bromo-2-(4-chloropyridin-3-yl)[1]benzofuro[3,2-d]pyrimidin-4(3H)-one], the half-maximal inhibitory concentration (IC50) in test [1] (setting [4]), in test [2] and in test [3] was under 10 µM in each case.
As for `CN1CCN(c2ccc(CNCCc3nc4c(oc5ccc(Br)cc54)c(=O)[nH]3)cc2)CC1` [Compound 111, 8-bromo-2-[2-({[4-(4-methylpiperazin-1-yl)phenyl]methyl}amino)ethyl][1]benzofuro[3,2-d]pyrimidin-4(3H)-one], the IC50 in test [1] (setting [4]), in test [2] and in test [3] was under 10 µM throughout.
With `O=c1[nH]c(-c2nccs2)nc2c1oc1ccc(Br)cc12` [Compound 86, 8-bromo-2-(1,3-thiazol-2-yl)[1]benzofuro[3,2-d]pyrimidin-4(3H)-one], the IC50 in test [1] (setting [4]), in test [2] and in test [3] was under 10 µM in each case.
As to `O=c1[nH]c(-c2ccc(Br)cc2Cl)nc2c1oc1ccc(Br)cc12` [Compound 116, 8-bromo-2-(4-bromo-2-chlorophenyl)[1]benzofuro[3,2-d]pyrimidin-4(3H)-one], the IC50 in test [1] (setting [4]), in test [2] and in test [3] was under 10 µM throughout.
For the compound `O=c1[nH]c(-c2ccc(NCC3CCNC3)cc2Cl)nc2c1oc1ccc(Br)cc12` (stereo not drawn) [Compound 154, 8-bromo-2-{2-chloro-4-[(pyrrolidin-3-ylmethyl)amino]phenyl}[1]benzofuro[3,2-d]pyrimidin-4(3H)-one], the IC50 in test [1] (setting [4]), in test [2] and in test [3] was under 10 µM each time.
In the case of `CC(=O)N[C@@H]1CCN(Cc2nc3c(oc4ccc(Br)cc43)c(=O)[nH]2)C1` [Compound 364, N-{(3R)-1-[(8-bromo-4-oxo-3,4-dihydro[1]benzofuro[3,2-d]pyrimidin-2-yl)methyl]pyrrolidin-3-yl}acetamide], the half-inhibitory concentration (IC50) is under 10 µM in test [1] (setting [4]), under 0.1 µM in test [1] (setting [5]), under 10 µM in test [2] and under 10 µM in test [3].
As for `O=c1[nH]c(CN2CCN(CCn3ccnc3)CC2)nc2c1oc1ccc(Br)cc12` [Compound 113, 8-bromo-2-({4-[2-(1H-imidazol-1-yl)ethyl]piperazin-1-yl}methyl)[1]benzofuro[3,2-d]pyrimidin-4(3H)-one], the IC50 in test [1] (setting [4]), in test [2] and in test [3] was under 10 µM in each case.
As for `CN(CCO)Cc1nc2c(oc3ccc(Br)cc32)c(=O)[nH]1` [Compound 401, 8-bromo-2-{[(2-hydroxyethyl)(methyl)amino]methyl}[1]benzofuro[3,2-d]pyrimidin-4(3H)-one], the IC50 in test [1] (setting [4]) was under 10 µM; in test [1] (setting [5]) it was under 0.1 µM; in test [2], under 10 µM; in test [3], under 10 µM.
`CO[C@@H]1CCN(Cc2nc3c(oc4ccc(Br)cc43)c(=O)[nH]2)C1` [Compound 408, 8-bromo-2-{[(3R)-3-(methyloxy)pyrrolidin-1-yl]methyl}[1]benzofuro[3,2-d]pyrimidin-4(3H)-one]: the IC50 was under 10 µM in test [1] (setting [4]), under 0.1 µM in test [1] (setting [5]), under 10 µM in test [2] and under 10 µM in test [3].
As to `O=c1[nH]c(CNC2CCCC2)nc2c1oc1ccc(Br)cc12` [Compound 199, 8-bromo-2-[(cyclopentylamino)methyl][1]benzofuro[3,2-d]pyrimidin-4(3H)-one], the IC50 was under 10 µM in test [1] (setting [4]), under 0.1 µM in test [1] (setting [5]), under 10 µM in test [2] and under 10 µM in test [3].
Consider `COc1ccc2oc3c(=O)[nH]c(-c4ccc(F)cc4Cl)nc3c2c1` [Compound 144, 2-(2-chloro-4-fluorophenyl)-8-(methyloxy)[1]benzofuro[3,2-d]pyrimidin-4(3H)-one], for which the IC50 in test [1] (setting [4]), in test [2] and in test [3] was under 10 µM each time.
